Reference: ChEMBL document CHEMBL3991601, “The target landscape of clinical kinase drugs” (Science, 2017)
Structures can show the parent of a compound that is named as a salt. The source made the active and inactive calls. For most assays here, no stated cut-off is given here; in the data, actives have a measured Kd and inactives only a lower limit.

Key:
[1] = target: T1, Phosphatidylinositol 5-phosphate 4-kinase type-2 gamma (Homo sapiens, UniProt Q8TBX8)
T1 sequence (Q8TBX8 whole entry): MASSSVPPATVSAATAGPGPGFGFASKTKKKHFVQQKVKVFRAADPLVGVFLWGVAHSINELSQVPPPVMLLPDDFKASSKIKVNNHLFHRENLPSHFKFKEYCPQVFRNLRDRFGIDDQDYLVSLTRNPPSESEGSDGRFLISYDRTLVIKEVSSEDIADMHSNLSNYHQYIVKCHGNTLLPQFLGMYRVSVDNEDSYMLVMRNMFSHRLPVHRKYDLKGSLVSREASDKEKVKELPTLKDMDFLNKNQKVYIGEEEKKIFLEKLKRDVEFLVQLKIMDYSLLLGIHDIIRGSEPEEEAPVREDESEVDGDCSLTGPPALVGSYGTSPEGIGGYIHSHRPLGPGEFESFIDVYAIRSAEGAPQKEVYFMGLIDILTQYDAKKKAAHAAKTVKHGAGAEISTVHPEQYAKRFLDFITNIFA

[2] = target: Protein-tyrosine kinase 6 (Homo sapiens, UniProt Q13882)
Sequence of Protein-tyrosine kinase 6 (Q13882 whole entry): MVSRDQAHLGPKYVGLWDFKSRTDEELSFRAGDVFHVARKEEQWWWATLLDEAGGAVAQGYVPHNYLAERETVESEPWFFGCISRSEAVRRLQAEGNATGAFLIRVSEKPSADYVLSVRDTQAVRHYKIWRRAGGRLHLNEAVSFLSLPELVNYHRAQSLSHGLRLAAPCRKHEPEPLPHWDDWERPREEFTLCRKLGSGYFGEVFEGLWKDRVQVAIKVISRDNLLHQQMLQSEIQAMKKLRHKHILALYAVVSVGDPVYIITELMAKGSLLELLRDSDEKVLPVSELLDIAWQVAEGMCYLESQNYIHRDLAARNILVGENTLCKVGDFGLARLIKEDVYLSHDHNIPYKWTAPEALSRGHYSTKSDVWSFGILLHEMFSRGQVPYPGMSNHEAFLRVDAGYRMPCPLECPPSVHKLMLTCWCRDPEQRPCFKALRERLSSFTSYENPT

[3] = target: T2, Cyclin-G-associated kinase (Homo sapiens, UniProt O14976)
T2 sequence (O14976 whole entry): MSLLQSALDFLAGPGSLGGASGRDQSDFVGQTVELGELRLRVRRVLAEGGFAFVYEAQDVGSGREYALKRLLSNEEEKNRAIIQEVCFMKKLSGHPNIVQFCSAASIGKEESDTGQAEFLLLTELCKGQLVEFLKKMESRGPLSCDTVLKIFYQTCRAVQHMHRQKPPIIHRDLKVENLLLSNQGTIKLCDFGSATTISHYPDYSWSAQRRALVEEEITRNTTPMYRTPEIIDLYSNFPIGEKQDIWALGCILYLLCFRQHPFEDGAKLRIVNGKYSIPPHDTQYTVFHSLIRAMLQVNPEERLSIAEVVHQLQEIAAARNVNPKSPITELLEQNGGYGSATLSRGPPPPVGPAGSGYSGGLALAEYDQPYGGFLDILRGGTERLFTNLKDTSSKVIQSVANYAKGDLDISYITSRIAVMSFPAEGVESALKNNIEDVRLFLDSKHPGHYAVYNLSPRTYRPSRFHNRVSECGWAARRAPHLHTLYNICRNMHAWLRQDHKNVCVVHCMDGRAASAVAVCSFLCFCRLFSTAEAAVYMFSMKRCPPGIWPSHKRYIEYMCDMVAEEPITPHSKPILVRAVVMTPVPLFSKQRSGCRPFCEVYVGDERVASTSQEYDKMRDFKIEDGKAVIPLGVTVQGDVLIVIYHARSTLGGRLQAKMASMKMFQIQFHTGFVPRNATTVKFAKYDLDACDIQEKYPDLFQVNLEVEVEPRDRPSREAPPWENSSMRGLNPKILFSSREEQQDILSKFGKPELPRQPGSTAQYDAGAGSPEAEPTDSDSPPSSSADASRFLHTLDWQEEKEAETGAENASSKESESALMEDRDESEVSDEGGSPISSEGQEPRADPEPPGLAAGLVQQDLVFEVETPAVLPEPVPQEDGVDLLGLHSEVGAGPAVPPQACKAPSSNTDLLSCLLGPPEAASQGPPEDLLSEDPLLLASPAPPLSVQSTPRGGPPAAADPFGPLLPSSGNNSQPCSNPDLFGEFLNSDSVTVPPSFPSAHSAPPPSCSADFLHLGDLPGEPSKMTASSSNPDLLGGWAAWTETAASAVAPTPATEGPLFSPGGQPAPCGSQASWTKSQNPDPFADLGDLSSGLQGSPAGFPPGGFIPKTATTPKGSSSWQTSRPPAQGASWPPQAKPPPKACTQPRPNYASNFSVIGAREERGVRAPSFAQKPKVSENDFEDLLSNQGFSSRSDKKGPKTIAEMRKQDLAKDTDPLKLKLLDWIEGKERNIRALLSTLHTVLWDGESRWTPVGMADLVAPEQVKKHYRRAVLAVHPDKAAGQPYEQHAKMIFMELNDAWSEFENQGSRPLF

[4] = target: T3, Pyridoxal kinase (Homo sapiens, UniProt O00764)
T3 sequence (O00764 whole entry): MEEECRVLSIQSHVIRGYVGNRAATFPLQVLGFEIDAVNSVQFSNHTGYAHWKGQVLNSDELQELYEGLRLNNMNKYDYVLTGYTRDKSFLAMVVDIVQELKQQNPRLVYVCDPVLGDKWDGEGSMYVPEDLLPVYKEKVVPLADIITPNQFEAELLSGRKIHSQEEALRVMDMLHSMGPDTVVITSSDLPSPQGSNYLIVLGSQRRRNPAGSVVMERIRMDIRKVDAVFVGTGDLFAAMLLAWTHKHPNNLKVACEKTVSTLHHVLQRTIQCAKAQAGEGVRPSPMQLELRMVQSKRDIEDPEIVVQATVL

[5] = target: T4, MAP kinase-activated protein kinase 5 (Homo sapiens, UniProt Q8IW41)
T4 sequence (Q8IW41 whole entry): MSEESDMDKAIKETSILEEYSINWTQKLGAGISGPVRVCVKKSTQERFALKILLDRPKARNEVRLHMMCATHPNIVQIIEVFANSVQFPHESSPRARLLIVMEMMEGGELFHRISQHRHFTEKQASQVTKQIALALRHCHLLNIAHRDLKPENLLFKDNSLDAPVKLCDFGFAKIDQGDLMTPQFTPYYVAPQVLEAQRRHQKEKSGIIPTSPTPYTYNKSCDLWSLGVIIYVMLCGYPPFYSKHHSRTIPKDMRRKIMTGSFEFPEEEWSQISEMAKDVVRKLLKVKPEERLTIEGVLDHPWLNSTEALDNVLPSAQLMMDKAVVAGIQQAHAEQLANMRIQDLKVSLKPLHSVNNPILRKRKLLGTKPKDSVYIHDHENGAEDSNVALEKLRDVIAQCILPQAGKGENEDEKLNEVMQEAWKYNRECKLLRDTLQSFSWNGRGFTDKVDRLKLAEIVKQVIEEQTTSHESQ

[6] = target: Cyclin-dependent kinase 17 (Homo sapiens, UniProt Q00537)
Sequence of Cyclin-dependent kinase 17 (Q00537 whole entry): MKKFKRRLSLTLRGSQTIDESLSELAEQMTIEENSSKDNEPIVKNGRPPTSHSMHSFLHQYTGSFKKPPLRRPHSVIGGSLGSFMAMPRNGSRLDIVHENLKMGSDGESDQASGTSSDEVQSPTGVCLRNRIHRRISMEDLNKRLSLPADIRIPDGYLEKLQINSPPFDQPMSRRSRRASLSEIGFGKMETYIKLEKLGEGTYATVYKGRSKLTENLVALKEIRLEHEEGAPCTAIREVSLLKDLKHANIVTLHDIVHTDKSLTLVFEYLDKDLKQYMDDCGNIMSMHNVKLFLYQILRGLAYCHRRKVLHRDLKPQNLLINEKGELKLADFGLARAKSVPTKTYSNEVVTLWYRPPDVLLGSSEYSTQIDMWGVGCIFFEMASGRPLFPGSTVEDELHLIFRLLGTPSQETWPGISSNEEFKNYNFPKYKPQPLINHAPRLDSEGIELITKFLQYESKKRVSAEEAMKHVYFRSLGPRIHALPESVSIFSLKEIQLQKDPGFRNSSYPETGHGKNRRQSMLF

[7] = target: T5, Ribosyldihydronicotinamide dehydrogenase [quinone] (Homo sapiens, UniProt P16083)
T5 sequence (P16083 whole entry): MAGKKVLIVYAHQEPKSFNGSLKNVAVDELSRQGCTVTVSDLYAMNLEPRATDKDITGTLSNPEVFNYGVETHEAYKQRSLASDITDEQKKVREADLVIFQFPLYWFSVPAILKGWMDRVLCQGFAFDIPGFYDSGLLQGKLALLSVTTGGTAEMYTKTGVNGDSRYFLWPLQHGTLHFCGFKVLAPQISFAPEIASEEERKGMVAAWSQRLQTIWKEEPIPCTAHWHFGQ

[8] = target: Myosin-14 (Homo sapiens, UniProt Q7Z406)
Sequence of Myosin-14 (Q7Z406 whole entry): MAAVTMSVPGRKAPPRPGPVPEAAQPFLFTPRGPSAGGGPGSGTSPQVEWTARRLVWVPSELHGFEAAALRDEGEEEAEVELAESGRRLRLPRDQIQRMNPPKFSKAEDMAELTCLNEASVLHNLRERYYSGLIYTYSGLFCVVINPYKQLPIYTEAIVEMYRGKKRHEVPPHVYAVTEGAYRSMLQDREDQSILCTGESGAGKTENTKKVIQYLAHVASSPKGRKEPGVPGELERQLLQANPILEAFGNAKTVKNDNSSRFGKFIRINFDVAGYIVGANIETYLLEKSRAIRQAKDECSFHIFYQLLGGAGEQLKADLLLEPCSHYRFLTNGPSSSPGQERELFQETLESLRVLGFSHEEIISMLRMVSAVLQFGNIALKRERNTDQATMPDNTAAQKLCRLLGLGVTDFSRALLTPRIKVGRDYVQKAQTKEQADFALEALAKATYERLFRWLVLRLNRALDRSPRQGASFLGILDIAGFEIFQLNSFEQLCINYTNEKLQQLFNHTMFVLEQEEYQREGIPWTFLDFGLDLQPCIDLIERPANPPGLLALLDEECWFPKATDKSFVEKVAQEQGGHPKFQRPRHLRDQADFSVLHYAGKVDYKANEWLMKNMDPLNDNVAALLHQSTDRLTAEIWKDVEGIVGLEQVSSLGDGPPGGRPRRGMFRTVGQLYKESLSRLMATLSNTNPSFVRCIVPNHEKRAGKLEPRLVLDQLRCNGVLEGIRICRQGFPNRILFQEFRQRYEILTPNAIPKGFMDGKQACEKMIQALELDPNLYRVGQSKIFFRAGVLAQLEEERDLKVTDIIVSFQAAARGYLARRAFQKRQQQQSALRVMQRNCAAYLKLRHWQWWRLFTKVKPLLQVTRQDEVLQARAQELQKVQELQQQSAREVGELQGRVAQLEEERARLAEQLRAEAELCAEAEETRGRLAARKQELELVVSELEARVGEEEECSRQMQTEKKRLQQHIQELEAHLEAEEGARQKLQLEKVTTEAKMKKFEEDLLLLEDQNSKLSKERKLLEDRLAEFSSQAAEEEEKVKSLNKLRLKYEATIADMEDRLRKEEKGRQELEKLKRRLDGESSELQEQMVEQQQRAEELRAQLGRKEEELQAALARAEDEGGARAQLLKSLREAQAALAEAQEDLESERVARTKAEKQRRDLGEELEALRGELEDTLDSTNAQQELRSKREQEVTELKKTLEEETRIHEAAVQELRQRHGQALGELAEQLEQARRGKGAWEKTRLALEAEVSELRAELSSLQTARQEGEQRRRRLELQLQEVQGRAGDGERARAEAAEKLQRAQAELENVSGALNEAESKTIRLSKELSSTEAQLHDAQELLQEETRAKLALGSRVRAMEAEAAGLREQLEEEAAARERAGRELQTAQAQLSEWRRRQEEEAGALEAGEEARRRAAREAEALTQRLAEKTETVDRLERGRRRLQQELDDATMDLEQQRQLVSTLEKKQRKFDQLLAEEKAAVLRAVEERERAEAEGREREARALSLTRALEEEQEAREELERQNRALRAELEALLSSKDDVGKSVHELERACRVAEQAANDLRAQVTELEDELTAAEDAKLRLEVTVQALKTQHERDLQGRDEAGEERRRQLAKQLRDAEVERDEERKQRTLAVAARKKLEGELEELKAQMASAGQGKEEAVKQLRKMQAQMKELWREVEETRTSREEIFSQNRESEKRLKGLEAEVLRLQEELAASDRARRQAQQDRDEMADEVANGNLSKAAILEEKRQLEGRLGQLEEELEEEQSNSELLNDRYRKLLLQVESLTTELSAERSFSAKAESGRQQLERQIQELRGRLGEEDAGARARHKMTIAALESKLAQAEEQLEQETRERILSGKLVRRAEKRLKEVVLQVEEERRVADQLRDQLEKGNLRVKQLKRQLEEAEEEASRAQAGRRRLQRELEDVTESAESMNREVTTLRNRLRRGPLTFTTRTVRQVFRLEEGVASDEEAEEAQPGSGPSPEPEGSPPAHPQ

Compound | Kd [1] | Kd [2] | Kd [3] | Kd [4] | Kd [5] | Kd [6] | Kd [7] | Kd [8]
Cn1cc(-c2cnc3ccc4ccc(CS(=O)(=O)NCc5ccccn5)cc4c(=O)c3c2)cn1 [MK-8033] | > 30 µM (inactive) | > 30 µM (inactive) | > 30 µM (inactive) | > 30 µM (inactive) | > 30 µM (inactive) | > 30 µM (inactive) | > 30 µM (inactive) | > 30 µM (inactive)
CN(C[C@@H]1COCCO1)S(=O)(=O)Nc1ccc2ccc3ncc(-c4cnn(C)c4)cc3c(=O)c2c1 [MK-2461] | 1.03 µM (active) | > 30 µM (inactive) | > 30 µM (inactive) | > 30 µM (inactive) | > 30 µM (inactive) | > 30 µM (inactive) | 52.6 µM (active) | > 30 µM (inactive)
CN1C/C=C/CCOc2cccc(c2)-c2ccnc(n2)Nc2cccc(c2)C1 [ZOTIRACICLIB] | > 30 µM (inactive) | > 30 µM (inactive) | > 30 µM (inactive) | > 30 µM (inactive) | > 30 µM (inactive) | > 30 µM (inactive) | > 30 µM (inactive) | > 30 µM (inactive)
CC(=O)c1cnc2ccc(-c3cc(Cl)c(O)c(Cl)c3)nc2c1N[C@H]1CC[C@H](CN(C)C)CC1 | 0.003 µM | > 30 µM (inactive) | 0.005 µM (active) | > 30 µM (inactive) | 0.272 µM (active) | > 30 µM (inactive) | > 30 µM (inactive) | > 30 µM (inactive)
Cc1cc(Nc2ncc(Cl)c(Nc3ccccc3S(=O)(=O)C(C)C)n2)c(OC(C)C)cc1C1CCNCC1 [CERITINIB] | > 30 µM (inactive) | > 30 µM (inactive) | > 30 µM (inactive) | > 30 µM (inactive) | > 30 µM (inactive) | > 30 µM (inactive) | > 30 µM (inactive) | > 30 µM (inactive)
Cc1nc2cc(-n3ncc(C(=O)c4cc5ccccc5[nH]4)c3N)ccc2[nH]1 [FGFR INHIBITOR DEBIO 1347] | > 30 µM (inactive) | > 30 µM (inactive) | > 30 µM (inactive) | 2.11 µM (active) | > 30 µM (inactive) | > 30 µM (inactive) | > 30 µM (inactive) | 
C[C@@H](N)c1ccc(C(=O)Nc2ccnc3[nH]ccc23)cc1 [Y-39983] | > 30 µM (inactive) | > 30 µM (inactive) | > 30 µM (inactive) | > 30 µM (inactive) | > 30 µM (inactive) | > 30 µM (inactive) | > 30 µM (inactive) | > 30 µM (inactive)
N#CC1(c2ccc(NC(=O)c3cccnc3NCc3ccncc3)cc2)CCCC1 [RIVOCERANIB] | > 30 µM (inactive) | > 30 µM (inactive) | > 30 µM (inactive) | > 30 µM (inactive) | > 30 µM (inactive) | > 30 µM (inactive) | > 30 µM (inactive) | > 30 µM (inactive)
CC(C)c1cc(CNc2nc(Nc3cc(C4CC4)[nH]n3)cc(N3CCN(C)CC3)n2)on1 [XL-228] | > 30 µM (inactive) | > 30 µM (inactive) | > 30 µM (inactive) | > 30 µM (inactive) | > 30 µM (inactive) | 0.005 µM | > 30 µM (inactive) | > 30 µM (inactive)
CO[C@H]1C[C@@H]2CC[C@@H](C)[C@@](O)(O2)C(=O)C(=O)N2CCCC[C@H]2C(=O)O[C@H]([C@H](C)C[C@@H]2CC[C@@H](O)[C@H](OC)C2)CC(=O)[C@H](C)/C=C(\C)[C@@H](O)[C@@H](OC)C(=O)[C@H](C)C[C@H](C)/C=C/C=C/C=C/1C [SIROLIMUS] | > 30 µM (inactive) | > 30 µM (inactive) | > 30 µM (inactive) | > 30 µM (inactive) | > 30 µM (inactive) | > 30 µM (inactive) | > 30 µM (inactive) | > 30 µM (inactive)
O=C(Nc1cc(C(F)(F)F)cc(C(F)(F)F)c1)c1cc(Cl)ccc1O [IMD-0354] | > 30 µM (inactive) | > 30 µM (inactive) | > 30 µM (inactive) | > 30 µM (inactive) | > 30 µM (inactive) | > 30 µM (inactive) | > 30 µM (inactive) | > 30 µM (inactive)
CCS(=O)(=O)N1CCN(c2ccc(Nc3ncc(C(N)=O)c(NC4CC4)n3)cc2)CC1 [Cerdulatinib Hydrochloride] | > 30 µM (inactive) | > 30 µM (inactive) | 0.552 µM (active) | > 30 µM (inactive) | > 30 µM (inactive) | > 30 µM (inactive) | > 30 µM (inactive) | 
CN1CCN(CCOc2cc(OC3CCOCC3)c3c(Nc4c(Cl)ccc5c4OCO5)ncnc3c2)CC1 [SARACATINIB] | > 30 µM (inactive) | 0.566 µM |  | > 30 µM (inactive) | > 30 µM (inactive) | > 30 µM (inactive) | > 30 µM (inactive) | > 30 µM (inactive)
CNC(=O)c1cc(Oc2ccc(NC(=O)Nc3cc(C(C)(C)C)nn3-c3ccc4ncccc4c3)c(F)c2)ccn1 [REBASTINIB] | > 30 µM (inactive) |  | > 30 µM (inactive) | > 30 µM (inactive) | > 30 µM (inactive) | 0.007 µM (active) | > 30 µM (inactive) | > 30 µM (inactive)
COc1ccc(S(=O)(=O)N(C(C)=O)c2ccccc2/C=C/c2cc[n+]([O-])cc2)cc1 [HMN-214] | > 30 µM (inactive) | > 30 µM (inactive) | > 30 µM (inactive) | > 30 µM (inactive) | > 30 µM (inactive) | > 30 µM (inactive) | > 30 µM (inactive) | 
O=C(Nc1c[nH]nc1-c1nc2cc(CN3CCOCC3)ccc2[nH]1)NC1CC1 [AT-9283] | > 30 µM (inactive) | 0.188 µM (active) |  | > 30 µM (inactive) | 0.589 µM (active) | 1.15 µM (active) | > 30 µM (inactive) | > 30 µM (inactive)
